Experiments:
Format in all cases: biochemical
H. pylori urease (HPU) [1] = target: T1, H. pylori urease (HPU) (Helicobacter pylori, UniProt P69996); assay: Determination of urease inhibition type (Lineweaver-Burk plots)
T1 construct: Crude HPU was obtained according to the method described by Matsubara et al; endogenous in cells; host or cells: cultured Helicobacter pylori (strain not specified)
Protocol: (§1) Using the methods described above, the type of enzyme inhibition induced by coptisine was determined by examining changes in the Michaelis constant (KM) and maximum velocity (vmax) values from Lineweaver–Burk plots of 1/v versus 1/urea. The inhibition constant was determined using secondary plots of the apparent KM/vmax or 1/vmax versus the concentration of coptisine. The assays were performed in triplicate.

jack bean urease (JBU) [2] = target: T2, jack bean urease (JBU) (Canavalia ensiformis, UniProt P07374); assay: as above
T2 construct: purchased Sigma Aldrich (Steineheim, Germany) type III (catalogue number not given)
T2 sequence (P07374 whole entry, looked up): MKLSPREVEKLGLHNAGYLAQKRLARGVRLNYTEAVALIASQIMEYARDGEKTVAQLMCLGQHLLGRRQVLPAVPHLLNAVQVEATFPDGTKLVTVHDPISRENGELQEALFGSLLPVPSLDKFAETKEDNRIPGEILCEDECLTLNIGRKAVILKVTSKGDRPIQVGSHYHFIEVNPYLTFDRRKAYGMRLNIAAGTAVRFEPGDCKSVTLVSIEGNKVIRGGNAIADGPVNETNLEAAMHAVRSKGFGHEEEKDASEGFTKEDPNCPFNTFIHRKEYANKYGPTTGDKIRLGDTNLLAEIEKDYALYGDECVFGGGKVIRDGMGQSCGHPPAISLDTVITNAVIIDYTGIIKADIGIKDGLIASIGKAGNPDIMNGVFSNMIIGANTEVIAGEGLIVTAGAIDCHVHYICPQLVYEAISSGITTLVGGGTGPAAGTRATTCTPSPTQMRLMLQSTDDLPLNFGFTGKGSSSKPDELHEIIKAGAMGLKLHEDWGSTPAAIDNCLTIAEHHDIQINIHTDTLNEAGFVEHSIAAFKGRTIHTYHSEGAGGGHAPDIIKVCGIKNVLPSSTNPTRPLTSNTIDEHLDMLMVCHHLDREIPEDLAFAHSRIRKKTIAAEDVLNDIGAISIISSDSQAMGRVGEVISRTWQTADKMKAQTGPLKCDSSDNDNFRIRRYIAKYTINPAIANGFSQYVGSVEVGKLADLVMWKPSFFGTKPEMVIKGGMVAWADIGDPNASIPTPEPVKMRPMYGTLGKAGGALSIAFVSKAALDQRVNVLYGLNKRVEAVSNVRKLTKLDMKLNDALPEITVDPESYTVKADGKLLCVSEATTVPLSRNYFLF
Protocol: as §1

H. pylori urease (HPU) [3] = target: T1, H. pylori urease (HPU); assay: Progress curve analysis; conditions: 0.63, 1.25 and 2.50 mM Cop, non-pre-incubated and pre-incubated systems
Protocol: (§2) Reaction progress curves for urea hydrolysis in the non-pre-incubated and pre-incubated systems were generated by plotting the concentration of ammonia generated as a function of the incubation time P(t) in the absence or presence of coptisine. Coptisine and urease were mixed immediately before the reaction in the non-pre-incubated system and were mixed and incubated for 20 min before urea was added to initiate the reaction in the pre-incubated system. Urease activity relative to the standard assay was determined at different time intervals.

jack bean urease (JBU) [4] = target: T2, jack bean urease (JBU); assay: Progress curve analysis; conditions: 0.63, 1.25 and 2.50 mM Cop, non-pre-incubated and pre-incubated systems
Protocol: as §2

[5] = Lineweaver-Burk plots, 1.00, 2.00 or 4.00 mM Cop

T1 sequence (P69996 whole entry): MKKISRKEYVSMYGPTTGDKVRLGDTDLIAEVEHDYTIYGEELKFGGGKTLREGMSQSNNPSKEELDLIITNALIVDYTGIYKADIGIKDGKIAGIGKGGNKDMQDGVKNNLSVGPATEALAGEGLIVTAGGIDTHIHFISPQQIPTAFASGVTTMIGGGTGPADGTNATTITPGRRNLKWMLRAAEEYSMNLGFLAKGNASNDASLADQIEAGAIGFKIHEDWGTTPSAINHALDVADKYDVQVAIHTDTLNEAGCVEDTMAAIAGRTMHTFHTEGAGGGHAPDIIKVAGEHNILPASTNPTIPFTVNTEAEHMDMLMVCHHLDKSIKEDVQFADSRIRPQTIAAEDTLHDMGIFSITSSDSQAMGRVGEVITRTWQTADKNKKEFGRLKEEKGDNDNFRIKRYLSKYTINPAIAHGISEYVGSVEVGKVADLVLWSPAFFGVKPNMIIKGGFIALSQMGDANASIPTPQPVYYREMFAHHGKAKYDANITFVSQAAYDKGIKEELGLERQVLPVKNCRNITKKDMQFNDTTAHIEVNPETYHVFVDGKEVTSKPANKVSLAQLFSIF
T1 sequence (P14916 whole entry, further chain): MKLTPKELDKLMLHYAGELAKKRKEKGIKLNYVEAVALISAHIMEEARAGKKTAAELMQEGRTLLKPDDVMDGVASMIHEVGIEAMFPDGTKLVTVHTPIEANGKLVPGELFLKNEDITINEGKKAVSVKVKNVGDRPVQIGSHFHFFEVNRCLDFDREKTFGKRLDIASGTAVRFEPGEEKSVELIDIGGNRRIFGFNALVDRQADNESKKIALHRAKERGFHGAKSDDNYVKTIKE

## c1c2c(cc3c1OCO3)-c1cc3ccc4c(c3c[n+]1CC2)OCO4 [Coptisine]
H. pylori urease (HPU) [1]
  Ki: 50 µM
H. pylori urease (HPU) [1]; [5]
  inhibition type, HPU: mixed-type inhibitor
H. pylori urease (HPU) [1]; from vertical intercept versus inhibitor concentration
  Kis (binding to the enzyme substrate complex), HPU: 1.48 mM
Jack bean urease (JBU) [2]
  Ki: 170 µM
Jack bean urease (JBU) [2]; [5]
  inhibition type, JBU: non-competitively inhibits
Jack bean urease (JBU) [2]; from intercept versus Cop concentration
  Kis, JBU: 0.25 mM
H. pylori urease (HPU) [3]
  binding behaviour from reaction progress curves, HPU: slow-binding inhibition
Jack bean urease (JBU) [4]
  binding behaviour from reaction progress curves, JBU: slow-binding inhibition

Source: article PMC6136390, “Coptisine-induced inhibition of Helicobacter pylori: elucidation of specific mechanisms by probing urease active site and its maturation process” (Journal of Enzyme Inhibition and Medicinal Chemistry, 2018)
